From patent publication US10213451B2, “Methods and compounds for modulating the secretion or expression of adhesion proteins or angiopoietins of cells” (PACIFIC ARROW LIMITED, priority 2004, dated 2019)
Several values for one entry are separate records, joined by “and”; a condition that tells them apart may be missing. Equal entries are not always repeated. Where two headings read alike, the source gives them in different places.

Key:
Assay type in all cases: cell-based, human
ES2(ovarian) cells = assay: MTT assay ES2; settings: for viable cells by MTT assay: ES2, 10 ug/ml
[1] = tested on: fibronectin expression in ES2 cells; assay: Microarray gene expression, Table 1
Experimental: (§1) Y/D is the ratio (in folds) of gene expression in cells treated with compound Y as compared with those of the no drug control (D),
(§2) YM/D is the ratio of gene expression in cells treated with compound YM (ACH-Y, Y without sugar moiety) compared with those of the no drug control (D)
(§3) Cell culture and drug-treatment.: ES2 cells were seeded in a T-25 flask with 4.5 million cells per flask for 24 hours. Cell culture was replaced with fresh medium with xanifolia-Y (Y) or DMSO no drug control (D) for 24 hours. Cells were then harvested for RNA isolation. Three experiments were done.
(§4) RNA extraction, labeling, hybridization, and data analysis. RNA was extracted from tumor cells using the Qiagen RNeasy Kit. RNA quality and quantity was checked by the Agilent BioAnalyzer and the NanoDrop® ND-1000 spectrophotometer respectively before further manipulation. The first and second cDNA strands were synthesized from 20 ng of total RNA using the Affymetrix T7 oligo(dT) primer protocol and kit for the two-cycle amplification. To produce amplified biotin-labeled-cRNA, the cDNA was […] by in vitro transcription using the MegaScript kit from Ambion. 15.0 μg of the labeled cRNA was fragmented and re-checked for concentration using the NanoDrop® ND-1000 spectrophotometer. A hybridization cocktail containing Affymetrix spike-in controls and fragmented labeled cRNA was loaded onto the Human U133 Plus 2.0 GeneChip® oligonucleotide array. The Affymetrix array (Affymetrix, Inc. Santa Clara, Calif.) is comprised of over 1,300,000 unique oligonucleotide features that represent greater than 38,500 well-substantiated human genes. The array was hybridized for 16 hours at 45° C. with rotation at 60 rpm then washed and stained with a strepavidin, R-phycoerythrin conjugate stain on the Affymetrix Fluidicis Station 450. Signal amplification was done using biotinylated antistreptavidin. The arrays were scanned using the GeneChip® 3000 confocal laser scanner with autoloader. The images were analyzed and quality control metrics recorded using Affymetrix GCOS software version 1.4. Lastly, the expression value for each gene was calculated using dChip PM-only model based or Plier algorithm.
(§5) Pairwise comparisons were made as follows: Treated vs. Control (Y vs. D), Modified Drug vs Control (YM/ACY-H vs. D) and Treated vs. Modified Drug (Y vs. YM/ACH-Y) Cel files analyzed using the Bioconductor package of R Statistical programming. Limma analysis generated a reasonable number of changing genes between the samples.
(§6) The raw data in the .CEL files were normalized by the GCRMA method (robust multi-array analysis). It is implemented in Bioconductor (http://www.bioconductor.org/). The raw signal intensity data were normalized, background corrected and summarized based on certain statistical models, and an expression value, in log 2-scale, is obtained per chip per probe set. Then the null hypothesis was tested that there's no significant changes in gene expression between the treatment pairs. This was done by LIMMA and is also implemented in Bioconductor. It uses empirical Bayes method to estimate the variance in gene expression. One comparison was made, namely, High Grade vs. Low Grade. The raw p-values were adjusted by the Benjamnin-Hochberg method for false discovery rate (FDR) control. All data sets contained a significant number of genes with a p-value less than 0.05, which is that the probability that a gene is NOT differential expressed (false positive) is 1:20.

[2] = tested on: regulator of G-protein expression in ES2 cells; assay: Microarray gene expression, Table 14
Experimental: as §1, §2, §3, §4, §5, §6

[3] = tested on: phosphatase, protein expression in ES2 cells; assay: Microarray gene expression, Table 19
Experimental: as §1, §2, §3, §4, §5, §6

[4] = Homo sapiens, ES-2, ES2 cells, read-out: IC50

| SMILES | IC50 (ES2(ovarian) cells; [4]) | FN1 fibronectin 1, gene expression ratio to no drug control (D) ([1]; probe 210495_x_at) | FN1 fibronectin 1, gene expression ratio to no drug control (D) ([1]; probe 211719_x_at) | FN1 fibronectin 1, gene expression ratio to no drug control (D) ([1]; probe 212464_s_at) | FN1 fibronectin 1, gene expression ratio to no drug control (D) ([1]; probe 216442_x_at) | RGS4 regulator of G-protein signalling 4, gene expression ratio to no drug control (D) ([2]; probe 204337_at) | RGS4 regulator of G-protein signalling 4, gene expression ratio to no drug control (D) ([2]; probe 204338_s_at) | RGS4 regulator of G-protein signalling 4, gene expression ratio to no drug control (D) ([2]; probe 204339_s_at) | PPP1R15A protein phosphatase 1, regulatory (inhibitor) subunit 15A, gene expression ratio to no drug control (D) ([3]; probe 37028_at) | PPP1R15A protein phosphatase 1, regulatory (inhibitor) subunit 15A, gene expression ratio to no drug control (D) ([3]; probe 202014_at) | DUSP10 dual specificity phosphatase 10, gene expression ratio to no drug control (D) ([3]; probe 215501_s_at) | DUSP10 dual specificity phosphatase 10, gene expression ratio to no drug control (D) ([3]; probe 221563_at) | growth of cells compared to the DMSO control (MTT) (ES2(ovarian) cells; ES2, 10 ug/ml (F13)) | viable cells by MTT assay (ES2(ovarian) cells; 7 hours) | viable cells by MTT assay (ES2(ovarian) cells; 18 hours) | viable cells by MTT assay (ES2(ovarian) cells; 24 hours) | IC50 (ES2(ovarian) cells; ES2 cells) | IC50 (ES2(ovarian) cells; Homo sapiens, ES2, Clear cell, read-out: IC50) | IC50 (ES2(ovarian) cells; Homo sapiens, ES-2, ES2 cells, combined with Paclitaxel, read-out: IC50 value for Xanifolia-Y when both drugs were used) |
| --- | --- | --- | --- | --- | --- | --- | --- | --- | --- | --- | --- | --- | --- | --- | --- | --- | --- | --- | --- |
| C/C=C(/C)C(=O)O[C@H]1[C@H](OC(=O)/C(C)=C\C)[C@@]2(CO)C(CC1(C)C)C1=CCC3[C@@]4(C)CC[C@H](O)C(C)(C)C4CC[C@@]3(C)[C@]1(C)[C@@H](O)[C@H]2O (stereo partly shown) [ACH-Y] | 20 µg/mL | −1.1 folds | −1.2 folds | −1.1 folds | −1.1 folds | −1.1 folds | −1.1 folds | −1.2 folds | 5.6 folds | 6.2 folds | 7.1 folds | 5.7 folds | – | – | – | – | – | – | – |
| C/C=C(/C)C(=O)O[C@H]1[C@H](OC(=O)/C(C)=C\C)[C@@]2(CO)C(CC1(C)C)C1=CCC3[C@@]4(C)CC[C@H](O[C@@H]5OC(C(=O)O)[C@@H](O)C(O[C@@H]6O[C@@H](CO)C(O)C6O)C5O[C@@H]5OC(CO)[C@H](O)C(O)C5O)C(C)(C)C4CC[C@@]3(C)[C@]1(C)[C@@H](O)[C@H]2O (stereo partly drawn) [Xanifolia-Y, 3-O-[β-D-galactopyranosyl (1→2)]-α-L-arabinofuranosy (1→3)-β-D-glucuronopyranosyl-21,22-O-diangeloyl-3β, 15α, 16α, 21β, 22α, 28-hexahydroxyolean-12-ene] | 5 µg/mL | −2.5 folds | −2.6 folds | −2.7 folds | −2.6 folds | −3.4 folds | −2.5 folds | −3.5 folds | 2.4 folds | 2.6 folds | 3.2 folds | 3.8 folds | 89% | 93% | Over 95% | 85% and 87% | 4.4 µg/mL | 4.4 µM | 2.5 µg/mL |
